Test results from patent publication US20210323995A1, “ISOLITHOCHOLIC ACID OR ISOALLOLITHOCHOLIC ACID AND DEUTERATED DERIVATIVES THEREOF FOR PREVENTING AND TREATING CLOSTRIDIUM DIFFICILE-ASSOCIATED DISEASES” (PHENEX PHARMACEUTICALS AG, priority 2018, published 2021).
In brackets after ≈: the same amount, converted by molar mass. Like-named read-outs stand apart in the source and are kept apart here.

Columns and labels:
[1] = system: C. diff. spore germination; conditions: reported in WO2010/062369, Table 3, cited from earlier work
[2] = system: C. diff. strain BI1 infection; experiment: Recurrence model hamster of C. diff. infection; type: in vivo, male Syrian hamster; conditions: for survivors: repeated experiment (FIG. 5), 100% of vehicle animals died within 13 days
Protocol: The efficacy of compounds in suppressing recurrent C. diff infection was assessed in male Syrian hamster. Hamster were made vulnerable to C. diff. infection by administration 1 day prior to C. diff, infection of a single dose of clindamycin (30 mg/kg) by oral gavage. After this antibiotic pre-treatment, mice received a challenge of approximately 1560 viable spores of strain BI1 administered by oral gavage (day 0). After that hamster received 10 mg/kg vancomycin from day 0 until day 5. Test articles (bile acid) and placebo were administered via oral gavage bid from day 6 through day 15. Efficacy of test articles was assessed by enumeration of survival of test animals over 20 days following C. diff. challenge and by comparison of mortality, disease severity scores and assessment of body weight against placebo treatment.

[3] = target: T1, vitamin D receptor (VDR; NR1I1) (Homo sapiens, UniProt P11473); experiment: One-hybrid reporter assay for the vitamin D receptor; type: cell-based; conditions: result in words
T1 construct: expressed in transfected cells; host or cells: HEK293
T1 sequence (P11473 88-427): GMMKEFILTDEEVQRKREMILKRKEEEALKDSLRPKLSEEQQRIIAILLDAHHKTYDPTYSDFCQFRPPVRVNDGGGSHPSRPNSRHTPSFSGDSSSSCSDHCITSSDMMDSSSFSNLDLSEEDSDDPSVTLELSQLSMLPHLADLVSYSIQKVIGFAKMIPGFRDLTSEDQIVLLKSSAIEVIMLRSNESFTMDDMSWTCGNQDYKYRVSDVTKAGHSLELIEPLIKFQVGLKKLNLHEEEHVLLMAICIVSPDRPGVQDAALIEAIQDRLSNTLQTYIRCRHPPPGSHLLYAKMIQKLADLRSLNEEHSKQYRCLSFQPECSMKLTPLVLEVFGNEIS
Protocol: The vitamin D receptor (VDR; NR1I1) reporter assay was performed by transient co-transfection of HEK293 cells with pCMV-BD (Stratagene #211342) containing the GAL4 DNA-binding domain fused with the ligand binding domain of VDR (Genbank accession no. NP_000378, aa 88-427), pFR-Luc reporter and pRL-CMV reporter (Promega #E2261) using PEI solution (Sigma Aldrich cat #40872-7) in a 96-well plate. Cells were incubated for 4-6 hours, and then cultured in MEM supplemented with 8.7% FCS, Glutamax, NEAA, sodium pyruvate and Pen/Strep in the presence of test compounds for 16-20 hours. Cells were incubated for 4 to 6 hours in 30 μL/well transfection mix in OPTIMEM and then cultured for further 16 to 20 hours after addition of 120 μL MEM supplemented with 8.7% FCS, Glutamax, NEAA, sodium pyruvate and Pen/Strep in the presence of test compounds. Medium was removed and cells were lysed with 1× Passive Lysis Buffer (Promega). Firefly luciferase buffer was then added and firefly luciferase luminescence was read on BMG LUMIstar OMEGA luminescence plate reader. One second later, renilla luciferase buffer was added and renilla luciferase luminescence was read to evaluate cell viability and to be able to normalize for well to well differences in transfection efficiency.

[4] = system: C. diff. strain VPI 10463 (ATCC-43255) infection; experiment: Murine model of Clostridium difficile-associated disease: acute model; type: in vivo, C57BL6 female mice
Protocol: Efficacy Evaluation in a Murine Model of Clostridium difficile-Associated Disease: Acute Model
The efficacy of compounds in suppressing C. diff infection was assessed in C57BL6 female mice. Mice were made vulnerable to C. diff. infection by administration of a cocktail of antibiotics (1% glucose, kanamycin (0.5 mg/mL), gentamicin (44 μg/mL), colistin (1062.5 U/mL), metronidazole (269 μg/mL), ciprofloxacin (156 μg/mL), ampicillin (100 μg/mL) and vancomycin (56 μg/mL)) in drinking water for a period of 9 days. 3 days prior to C. diff. infection, mice received a single dose of clindamycin (10 mg/kg) in a volume of 0.5 mL by oral gavage. After this antibiotic pre-treatment, mice received a challenge of approximately 4.5 log 10 viable spores of strain VPI 10463 (ATCC-43255) administered by oral gavage. Test compounds (bile acid) and placebo were administered in the chow or via oral gavage bid from day −2 through day 4 or 10 or 11. Gavage medium was aqueous, PBS-buffered 0.5% hydroxypropyl methylcellulose (HPMC) suspension. Efficacy of test articles was assessed by enumeration of survival of test animals over 12/15 days following C. diff, challenge and by comparison of mortality, disease severity scores and assessment of body weight against placebo treatment.
Results studies 1, 2 and 3 (using compound Example 1, dosed with 100 mg/kg daily dose via food or via gavage bid): […]

[5] = ALT plasma concentration of mice after 5 days administration; type: in vivo; conditions: 500 mg/kg for 5 days, mice (FIG. 1a, 1b); result in words
[6] = system: C. diff. strain VPI 10463 (ATCC-43255) infection; experiment: Recurrence model mouse of C. diff. infection; type: in vivo, C57BL/6 female mice; conditions: for survival of the animals: comparison Example 3 against Example 1 (FIG. 3); for Survived / Total Deaths: Day 5 to Day 11, n 10
Protocol: The efficacy of compounds in suppressing recurrent C. diff. infection was assessed in C57BL/6 female mice. Mice were made vulnerable to C. diff. infection by administration of a cocktail of antibiotics (1% glucose, kanamycin (0.5 mg/mL), gentamicin (44 μg/mL), colistin (1062.5 U/mL), metronidazole (269 μg/mL), ciprofloxacin (156 μg/mL), ampicillin (100 μg/mL) and vancomycin (56 μg/mL)) in drinking water for a period of 9 days. 3 days prior to C. diff. infection, mice received a single dose of clindamycin (10 mg/kg) in a volume of 0.5 mL by oral gavage. After this antibiotic pre-treatment, mice received a challenge of approximately 4.5 log 10 viable spores of strain VPI 10463 (ATCC-43255) administered by oral gavage (day 0). After that mice received 50 mg/kg vancomycin from day 0 until day 4. Test articles (bile acid) and placebo were administered via oral gavage bid from day 5 through day 11. Efficacy of test articles was assessed by enumeration of survival of test animals over 15 days following C. diff, challenge and by comparison of mortality, disease severity scores and assessment of body weight against placebo treatment.

[7] = system: Clostridium difficile (Clostridioides difficile), Mouse Strain VPI 10463 (ATCC 43255); experiment: MIC on Clostridium difficile mouse strain VPI 10463; type: cell-based; conditions: ATCC43255, 48 hours, presence/absence of growth, tested 0.015-250 μM
Protocol: Determination of Minimal Inhibitory Concentrations (MICs) of Bile Acid Derivatives on Clostridium difficile (Clostridioides difficile), Mouse Strain VPI 10463 (ATCC 43255)
Concentrations (0.015-250 μM) of test compounds are prepared by serial two-fold dilutions in pre-reduced brain heart infusion (BHI) broth. To each well containing test article, approximately 5×10^5 CFU of bacteria are added and incubated for 48 hours in an anaerobic chamber at 37° C. Following incubation, the MIC of each test article is determined by presence/absence of bacterial growth in each well.

[8] = system: Clostridium difficile (Clostridioides difficile), Human Strain R20291, Ribotype RT027; experiment: MIC on Clostridium difficile human strain R20291, ribotype RT027; type: cell-based; conditions: 16 h incubation, OD600
Protocol: Determination of Minimal Inhibitory Concentrations (MICs) of Bile Acid Derivatives on Clostridium difficile (Clostridioides difficile), Human Strain R20291, Ribotype RT027, Reference DSMZ (DSM-27147)
All bacterial culturing steps and MIC experiments were performed under anoxic conditions (95% N2, 5% H2) and 37° C. in an incubator model 2002 that was placed in a Type B vinyl anaerobic chamber, both from Coy Laboratories Products. The strains were maintained as frozen stock cultures in Brain-Heart Infusion broth supplemented with […] and 1% (w/v) L-cysteine (BHIS) containing 40% (v/v) glycerine (Carl Roth GmbH, Cat. #3783.1) at −80° C. Brain-heart infusion broth (Sigma Aldrich, Cat. #53286) with the addition of with 5 g/L yeast extract (Carl Roth GmbH, Cat. #2363.5) was prepared according to the manufacturer's instructions. After heat sterilization, 1 g L-cysteine (Sigma Aldrich, Cat. #C7352) was added that was dissolved in 10 mL of distilled water (H2Odd) and filter sterilized. Medium was placed over night into the anaerobic chamber for degassing. For the MIC-assay cryo-preserved strains were streaked out on BBL™ Columbia CNA Agar with 5% Sheep Blood (BD™, Cat. #221352) and grown for 2-3 d. These plates were kept at rt in the anaerobic chamber for up to two weeks for starting fresh liquid cultures. […]

[9] = Study 1, 0.1% in chow, Day −2 to Day 10
[10] = Study 1, 0.1% in chow, Day −2 to Day 10, n 10
[11] = Study 2, 0.1% in chow, Day −2 to Day 10
[12] = Study 2, 0.1% in chow, Day −2 to Day 10, n 10
[13] = Study 3, 0.1% in chow, Day −2 to Day 4
[14] = Study 3, 0.1% in chow, Day −2 to Day 4, n 10
[15] = Study 3, 0.1% in chow, Day −2 to Day 10
[16] = Study 3, as gavage, Day −2 to Day 4
[17] = Study 3, as gavage, Day −2 to Day 4, n 10
[18] = Study 3, as gavage, Day −2 to Day 10
[19] = Study 2 (so in the source), 0.1% in chow, Day −2 to Day 10
[20] = Study 2, as gavage, Day 5 to Day 11

Structure (SMILES): CC(=O)O[C@@H]1CC[C@@]2(C)[C@H](CC[C@@H]3[C@@H]2CC[C@]2(C)[C@@H]([C@H](C)CCC(=O)O)CC[C@@H]32)C1 [5β-cholanic acid 3α-ol acetate]
- effect on C. diff. spore germination (inhibition of germination) [1]: no effect
- effect on C. diff. spore germination (inhibition of germination) ([1]; listed as 3-acetyl-LCA): not present

Structure (SMILES): C[C@H](CCC(=O)O)[C@H]1CC[C@H]2[C@@H]3CC[C@@H]4C[C@@H](O)CC[C@]4(C)[C@H]3CC[C@]12C [Example 1, Isolithocholic Acid]
- survivors ([2]; 30 mg/kg): 20%
- survivors ([2]; 100 mg/kg): 40%
- animals protected ([2]; dose-dependent manner (FIG. 5)): 20-40%
- animals in the treatment group died ([2]; first experiment (FIG. 4), vehicle group 20% died, result in words): none
- spores in caecum and colon of surviving animals ([2]; result in words): removed all spores from caecum and colon
- Vitamin D agonism [3]: devoid of this Vitamin D agonism
- % Death [4, 9]: 0%
- % mouse days with total clinical score >0 [4, 9]: 30%
- % mouse days with total clinical score >2 [4, 9]: 0%
- Body weight day 12 [4, 9]: 19.0
- Survived [4, 10]: 10
- Total Deaths [4, 10]: 0
- % Death [4, 11]: 0%
- % mouse days with total clinical score >0 [4, 11]: 65%
- % mouse days with total clinical score >2 [4, 11]: 0%
- Body weight day 12 [4, 11]: 20.0
- Survived [4, 12]: 10
- Total Deaths [4, 12]: 0
- % Death [4, 13]: 20%
- Body weight day 12 [4, 13]: 18.1
- Survived [4, 14]: 8
- Total Deaths [4, 14]: 2
- % mouse days with total clinical score >0 [4, 15]: 72%
- % mouse days with total clinical score >2 [4, 15]: 15%
- % Death [4, 16]: 0%
- Body weight day 12 [4, 16]: 15.5 g
- Survived [4, 17]: 10
- Total Deaths [4, 17]: 0
- % mouse days with total clinical score >0 [4, 18]: 30%
- % mouse days with total clinical score >2 [4, 18]: 2%
- animals in the treatment groups survived ([4]; first study (vehicle group 40% died)): 100%
- animals in the treatment groups survived ([4]; second study (vehicle group 30% died)): 100%
- animals in the treatment groups survived ([4]; third study (vehicle group 80% died)): 80%
- ALT-elevation (ALT plasma concentration) [5]: less pronounced
- survival of the animals ([6]; 100 mg/kg): 30%
- efficacy (surviving rate), head-to-head comparison of iso-LCA and LCA ([6]; FIG. 2, result in words): higher surviving rate
- % Death ([6]; Study 1, 0.1% in chow, Day 5 to Day 11): 0%
- Survived ([6]; Study 1, 0.1% in chow): 10
- Total Deaths ([6]; Study 1, 0.1% in chow): 0
- Body weight day 12 [6, 9]: 18.4
- % mouse days with total clinical score >0 [6, 19]: 30%
- % mouse days with total clinical score >2 [6, 19]: 1%
- % Death [6, 20]: 0%
- % mouse days with total clinical score >0 [6, 20]: 56%
- % mouse days with total clinical score >2 [6, 20]: 0%
- Body weight day 12 [6, 20]: 16.9 g
- Survived ([6]; Study 2, as gavage): 10
- Total Deaths ([6]; Study 2, as gavage): 0
- animals in the treatment groups died ([6]; vehicle group 70 to 80% died, result in words): none
- MIC [7]: 15.6 µM (≈ 5.87 µg/mL)
- MIC [8]: 16 µM (≈ 6.03 µg/mL)

Structure (SMILES): [2H]C1([2H])C[C@@]2(C)[C@H](CC[C@@H]3[C@@H]2CC[C@]2(C)[C@@H]([C@H](C)CCC(=O)O)CC[C@@H]32)C([2H])([2H])[C@H]1O [Example 2, 2,2,4,4-d4-Isolithocholic Acid]
- MIC [7]: 7.8 to 15.6 µM (≈ 2.97 to 5.94 µg/mL)

Structure (SMILES): [2H]C1([2H])C[C@@]2(C)[C@H](CC[C@@H]3[C@@H]2CC[C@]2(C)[C@@H]([C@H](C)CCC(=O)O)CC[C@@H]32)C([2H])([2H])C1([2H])O (stereo partly shown) [Example 3, 2,2,3,4,4-d5-Isolithocholic Acid]
- survival of the animals ([6]; 30 mg/kg): 60%
- MIC [7]: 7.8 to 15.6 µM (≈ 2.98 to 5.95 µg/mL)

Structure (SMILES): [2H][C@]1(O)CC[C@@]2(C)[C@H](CC[C@@H]3[C@@H]2CC[C@]2(C)[C@@H]([C@H](C)CCC(=O)O)CC[C@@H]32)C1 [Example 4, 3-d1-Isolithocholic Acid]
- MIC [7]: 15.6 µM (≈ 5.89 µg/mL)

Structure (SMILES): C[C@H](CCC(=O)O)[C@H]1CC[C@H]2[C@@H]3CC[C@H]4C[C@@H](O)CC[C@]4(C)[C@H]3CC[C@]12C [Example 5, 3β-Hydroxy-5α-cholan-24-oic Acid]
- MIC [7]: 3.9 µM (≈ 1.47 µg/mL)
- MIC [8]: 8 µM (≈ 3.01 µg/mL)

Structure (SMILES): C[C@H](CCC(=O)O)[C@H]1CC[C@H]2[C@@H]3CC[C@@H]4C[C@H](O)CC[C@]4(C)[C@H]3CC[C@]12C [LCA, lithocholic acid]
- ALT-elevation (ALT plasma concentration) [5]: confirm this described liability of ALT-elevation

Structure (SMILES): C[C@H](CCC(=O)O)[C@H]1CC[C@H]2[C@@H]3CC[C@@H]4C[C@@H](O)CC[C@]4(C)[C@H]3C[C@H](O)[C@]12C [iso-DCA, reference compound]
- MIC [7]: > 250 µM
